Read-outs that look alike come from different tables or passages of the source.
Tests used:
human NK1 receptor = human NK1 receptor (Homo sapiens, UniProt P25103); experiment: NK1 receptor binding, [3H]substance P displacement, CHO cell membranes
[1] = target: T1, Recombinant human NK3 (hNK3) receptor (Homo sapiens, UniProt P29371); experiment: NK3 receptor binding, [3H]SR142801 displacement, membrane preparations
T1 construct: expressed in transfected cells
T1 sequence (P29371 1-465): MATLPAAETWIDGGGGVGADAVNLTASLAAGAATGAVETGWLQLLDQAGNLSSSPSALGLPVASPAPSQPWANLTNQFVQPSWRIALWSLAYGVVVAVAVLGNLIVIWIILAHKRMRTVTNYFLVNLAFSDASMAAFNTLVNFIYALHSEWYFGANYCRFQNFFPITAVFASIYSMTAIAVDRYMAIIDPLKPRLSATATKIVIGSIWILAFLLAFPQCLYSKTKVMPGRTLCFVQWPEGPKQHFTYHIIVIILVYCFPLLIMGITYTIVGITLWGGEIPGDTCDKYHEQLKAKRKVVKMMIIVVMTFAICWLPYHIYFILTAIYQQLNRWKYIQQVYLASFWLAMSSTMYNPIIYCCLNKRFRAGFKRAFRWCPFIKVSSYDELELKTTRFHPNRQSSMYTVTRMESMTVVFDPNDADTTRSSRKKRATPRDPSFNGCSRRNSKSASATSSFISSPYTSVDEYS
Procedure, shortened: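 Buffer: Tris-HCl 50 mM pH 7.4, BSA 0.1%, MnCl2 4 mM, phosphoramidon 1 μM. ~2.5 μg membrane/well, 90 min RT. NSB with SB222200 (10 μM). Vacuum filtration over 0.3% PEI-treated GF/C, cold Tris/BSA washes, scintillation count; duplicates, ≥2 experiments.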

[2] = first value of the cell NK1/NK3, read-out: pKi NK1 (converted)
[3] = second value of the cell NK1/NK3, read-out: pKi NK3 (converted)
[4] = first value of the cell pKi NK1/NK3, human NK1 receptor, [3H]substance P
[5] = second value of the cell pKi NK1/NK3, hNK3 receptor, [3H]SR142801

human NK1 receptor, sequence (P25103 whole entry): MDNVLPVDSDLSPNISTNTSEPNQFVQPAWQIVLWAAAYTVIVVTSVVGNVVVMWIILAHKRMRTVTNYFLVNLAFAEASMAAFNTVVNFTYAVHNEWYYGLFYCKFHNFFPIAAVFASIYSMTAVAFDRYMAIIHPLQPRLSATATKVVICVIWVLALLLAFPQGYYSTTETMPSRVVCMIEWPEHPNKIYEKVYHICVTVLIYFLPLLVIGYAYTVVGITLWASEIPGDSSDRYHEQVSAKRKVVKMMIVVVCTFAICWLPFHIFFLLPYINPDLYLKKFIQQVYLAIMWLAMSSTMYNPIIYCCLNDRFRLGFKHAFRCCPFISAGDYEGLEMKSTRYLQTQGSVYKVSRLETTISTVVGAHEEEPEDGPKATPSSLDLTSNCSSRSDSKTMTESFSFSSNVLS

Ki (human NK1 receptor; [2]) [nM] | Ki [1, 3] [nM] | Ki (human NK1 receptor; [4]) [nM] | Ki [1, 5] [nM] | pKi NK3 ([1]; second value of the cell NK1/NK3) | SMILES
1.23 | 1.02 | – | – | – | Cc1cc(F)ccc1-c1cc(N2C[C@@H](O)C[C@H]2CO)ncc1N(C)C(=O)C(C)(C)c1cc(C(F)(F)F)cc(C(F)(F)F)c1 [Example 238, (2S,4S)-2-(3,5-Bis-trifluoromethyl-phenyl)-N-[4-(4-fluoro-2-methyl-phenyl)-6-(4-hydroxy-2-hydroxymethyl-pyrrolidin-1-yl)-pyridin-3-yl]-N-methyl-isobutyramide]
2.63 | 2.51 | – | – | – | CN(C(=O)C(C)(C)c1cc(C(F)(F)F)cc(C(F)(F)F)c1)c1cnc(N2CCC[C@H]2CO)cc1-c1ccc(F)cc1 [Example 288, (S)-2-(3,5-Bis-trifluoromethyl-phenyl)-N-[4-(4-fluoro-phenyl)-6-(2-hydroxymethyl-pyrrolidin-1-yl)-pyridin-3-yl]-N-methyl-isobutyramide]
– | – | 2.45 | 5.62 | – | CN(C(=O)C(C)(C)c1cc(C(F)(F)F)cc(C(F)(F)F)c1)c1cnc(N[C@H]2CC[C@H](O)CC2)cc1-c1ccc(Cl)cc1Cl [Example 91, trans-2-(3,5-Bis-trifluoromethyl-phenyl)-N-[4-(2,4-dichloro-phenyl)-6-(4-hydroxy-cyclohexylamino)-pyridin-3-yl]-N-methyl-isobutyramide]
– | – | 2.45 | 8.91 | – | CCN(C(C)=O)[C@H]1CCN(c2cc(-c3ccc(F)cc3C)c(N(C)C(=O)C(C)(C)c3cc(C(F)(F)F)cc(C(F)(F)F)c3)cn2)C1 [Example 108, (S)-N-[6-[3-(Acetyl-ethyl-amino)-pyrrolidin-1-yl]-4-(4-fluoro-2-methyl-phenyl)-pyridin-3-yl]-2-(3,5-bis-trifluoromethyl-phenyl)-N-methyl-isobutyramide]
– | – | 1.2 | 7.41 | – | CN(C(=O)C(C)(C)c1cc(C(F)(F)F)cc(C(F)(F)F)c1)c1cnc(N2C[C@H](O)C[C@H]2CO)cc1-c1ccc(F)cc1 [Example 202, (2S,4R)-2-(3,5-Bis-trifluoromethyl-phenyl)-N-[4-(4-fluoro-phenyl)-6-(4-hydroxy-2-hydroxymethyl-pyrrolidin-1-yl)-pyridin-3-yl]-N-methyl-isobutyramide]
– | – | 1.95 | 0.55 | – | CN(C(=O)C(C)(C)c1cc(Cl)cc(OC(F)F)c1)c1cnc(N2C[C@H](O)C[C@H]2CO)cc1-c1ccccc1Cl [Example 35, (2S,4R)-2-(3-Chloro-5-difluoromethoxy-phenyl)-N-[4-(2-chloro-phenyl)-6-(4-hydroxy-2-hydroxymethyl-pyrrolidin-1-yl)-pyridin-3-yl]-N-methyl-isobutyramide]
– | – | 0.933 | 32.4 | – | CN(C(=O)C(C)(C)c1cc(C(F)(F)F)cc(C(F)(F)F)c1)c1cnc(N2C[C@H](O)[C@@H](O)C2)cc1-c1ccccc1Cl [Example 182, (3S,4S)-2-(3,5-Bis-trifluoromethyl-phenyl)-N-[4-(2-chloro-phenyl)-6-(3,4-dihydroxy-pyrrolidin-1-yl)-pyridin-3-yl]-N-methyl-isobutyramide]
1.55 | – | – | – | 9.15 | Cc1cc(F)ccc1-c1cc(N2C[C@@H](F)C[C@H]2CO)ncc1N(C)C(=O)C(C)(C)c1cc(C(F)(F)F)cc(C(F)(F)F)c1 [Example 298, (2S,4S)-2-(3,5-Bis-trifluoromethyl-phenyl)-N-[6-(4-fluoro-2-hydroxymethyl-pyrrolidin-1-yl)-4-(4-fluoro-2-methyl-phenyl)-pyridin-3-yl]-N-methyl-isobutyramide]
– | – | 1.82 | 28.8 | – | CN(C(=O)C(C)(C)c1cc(C(F)(F)F)cc(C(F)(F)F)c1)c1cnc(N2CCC[C@@H](O)[C@H]2CO)cc1-c1ccccc1Cl (racemic) [Example 195, (2RS,3RS)-2-(3,5-Bis-trifluoromethyl-phenyl)-N-[4′-(2-chloro-phenyl)-3-hydroxy-2-hydroxymethyl-3,4,5,6-tetrahydro-2H-[1,2′]bipyridinyl-5′-yl]-N-methyl-isobutyramide]
– | – | 0.724 | 10.5 | – | C[C@H](O)[C@H](CO)Nc1cc(-c2ccccc2Cl)c(N(C)C(=O)C(C)(C)c2cc(C(F)(F)F)cc(C(F)(F)F)c2)cn1 [Example 147, (1S,2S)-2-(3,5-Bis-trifluoromethyl-phenyl)-N-[4-(2-chloro-phenyl)-6-(2-hydroxy-1-hydroxymethyl-propylamino)-pyridin-3-yl]-N-methyl-isobutyramide]
1.2 | 3.8 | – | – | – | CN(C(=O)C(C)(C)c1cc(C(F)(F)F)cc(C(F)(F)F)c1)c1cnc(N2CC[C@H](O)[C@H]2CO)cc1-c1ccc(F)cc1 [Example 266, (2R,3S)-2-(3,5-Bis-trifluoromethyl-phenyl)-N-[4-(4-fluoro-phenyl)-6-(3-hydroxy-2-hydroxymethyl-pyrrolidin-1-yl)-pyridin-3-yl]-N-methyl-isobutyramide]
1.66 | 2.57 | – | – | – | CN(C(=O)C(C)(C)c1cc(C(F)(F)F)cc(C(F)(F)F)c1)c1cnc(N2C[C@H](O)C[C@H]2CO)cc1-c1ccccc1CO [Example 225, (2S,4R)-2-(3,5-Bis-trifluoromethyl-phenyl)-N-[6-(4-hydroxy-2-hydroxymethyl-pyrrolidin-1-yl)-4-(2-hydroxymethyl-phenyl)-pyridin-3-yl]-N-methyl-isobutyramide]
– | – | 1.02 | 5.25 | – | Cc1cc(F)ccc1-c1cc(N2CC[C@H](N(C)S(C)(=O)=O)C2)ncc1N(C)C(=O)C(C)(C)c1cc(C(F)(F)F)cc(C(F)(F)F)c1 [Example 105, (S)-2-(3,5-Bis-trifluoromethyl-phenyl)-N-{4-(4-fluoro-2-methyl-phenyl)-6-[3-(methanesulfonyl-methyl-amino)-pyrrolidin-1-yl]-pyridin-3-yl}-N-methyl-isobutyramide]
– | – | 3.98 | 2.29 | – | CCCN(CCO)c1cc(-c2ccccc2C)c(N(C)C(=O)C(C)(C)c2cc(C(F)(F)F)cc(C(F)(F)F)c2)cn1 [Example 119, 2-(3,5-Bis-trifluoromethyl-phenyl)-N-{6-[(2-hydroxy-ethyl)-propyl-amino]-4-o-tolyl-pyridin-3-yl}-N-methyl-isobutyramide]
– | – | 1.66 | 15.8 | – | Cc1cc(F)ccc1-c1cc(N2CC[C@H](N)C2)ncc1N(C)C(=O)C(C)(C)c1cc(C(F)(F)F)cc(C(F)(F)F)c1 [Example 103, (S)-N-[6-(3-Amino-pyrrolidin-1-yl)-4-(4-fluoro-2-methyl-phenyl)-pyridin-3-yl]-2-(3,5-bis-trifluoromethyl-phenyl)-N-methyl-isobutyramide]
– | – | 1.2 | 2.63 | – | Cc1cc(F)ccc1-c1cc(N2CCS(=O)(=O)CC2CO)ncc1N(C)C(=O)C(C)(C)c1cc(C(F)(F)F)cc(C(F)(F)F)c1 (racemic) [Example 177, (RS)-2-(3,5-Bis-trifluoromethyl-phenyl)-N-[4-(4-fluoro-2-methyl-phenyl)-6-(3-hydroxymethyl-1,1-dioxo-1λ^6-thiomorpholin-4-yl)-pyridin-3-yl]-N-methyl-isobutyramide]
– | – | 1.12 | 14.5 | – | CN(C(=O)C(C)(C)c1cc(C(F)(F)F)cc(C(F)(F)F)c1)c1cnc(NCCO)cc1-c1ccc(F)cc1Cl [Example 69, 2-(3,5-Bis-trifluoromethyl-phenyl)-N-[4-(2-chloro-4-fluoro-phenyl)-6-(2-hydroxy-ethylamino)-pyridin-3-yl]-N-methyl-isobutyramide]
– | – | 2.75 | 8.91 | – | CN(C(=O)C(C)(C)c1cc(Cl)cc(Cl)c1)c1cnc(NCCO)cc1-c1ccccc1Cl [Example 1, N-[4-(2-Chloro-phenyl)-6-(2-hydroxy-ethylamino)-pyridin-3-yl]-2-(3,5-dichloro-phenyl)-N-methyl-isobutyramide]
1.02 | 1.35 | – | – | – | COc1ccccc1-c1cc(N2CC[C@H](O)[C@H]2CO)ncc1N(C)C(=O)C(C)(C)c1cc(C(F)(F)F)cc(C(F)(F)F)c1 [Example 263, (2R,3S)-2-(3,5-Bis-trifluoromethyl-phenyl)-N-[6-(3-hydroxy-2-hydroxymethyl-pyrrolidin-1-yl)-4-(2-methoxy-phenyl)-pyridin-3-yl]-N-methyl-isobutyramide]
– | – | 1.32 | 7.24 | – | CN(C(=O)C(C)(C)c1cc(C(F)(F)F)cc(C(F)(F)F)c1)c1cnc(N[C@H]2CC[C@H](O)CC2)cc1-c1ccccc1Br [Example 132, trans-2-(3,5-Bis-trifluoromethyl-phenyl)-N-[4-(2-bromo-phenyl)-6-(4-hydroxy-cyclohexylamino)-pyridin-3-yl]-N-methyl-isobutyramide]
3.47 | 1.82 | – | – | – | CN(C(=O)C(C)(C)c1cc(C(F)(F)F)cc(C(F)(F)F)c1)c1cnc(N2CCC[C@H]2CO)cc1-c1ccccc1Br [Example 281, (S)-2-(3,5-Bis-trifluoromethyl-phenyl)-N-[4-(2-bromo-phenyl)-6-(2-hydroxymethyl-pyrrolidin-1-yl)-pyridin-3-yl]-N-methyl-isobutyramide]

Reference: patent publication US8404708B2, “Dual NK1/NK3 receptor antagonists” (Hoffmann-La Roche Inc., priority 2004, dated 2013)
